Common to all, as to experiment: NCI anticancer screen, dose series, 48 h
Experiment [1] has as its system SK-MEL-2.
The subject of experiment [2] is HOP-62.
The test system of experiment [3] is LOX IMVI.
For experiment [4], the system named is NCI-H23.
The test system of experiment [5] is SW-620.
For experiment [6], the system named is UACC-257.
Experiment [7] has as its system NCI/ADR-RES.
The subject of experiment [8] is MCF7.
Experiment [9] deals with CAKI-1.
Experiment [10] concerns M14.
Experiment [11] has as its system DU-145.
For experiment [12], the system named is OVCAR-8.
Experiment [13] concerns IGROV-1.
The subject of experiment [14] is ACHN.
The test system of experiment [15] is HL-60.
The test system of experiment [16] is SF-295.
Experiment [17] deals with NCI-H460.
Experiment [18] deals with COLO 205.
Experiment [19] relates to TK-10.
Experiment [20] has as its system HOP-18.

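A five-concentration, 48-hour dose response in 96-well plates underlies each endpoint, interpolated linearly between surrounding concentrations. The concentration for 50% growth inhibition is given as GI50.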 Active and inactive are the calls of the source. No stated cut-off is given here; in the data, active = GI50 up to about 1.1 µM and inactive = higher. Bounds are passed on as bounds.

In the case of `COc1cc(C2c3cc4c(cc3OC(N3CCCCC3)C2C)OCO4)cc(OC)c1O` (stereo unspecified), the GI50 in experiment [1] is 7.73 µM (inactive); in [2] it was 6.78 µM (inactive); in experiment [3], 9.77 µM (inactive); in experiment [4], 18.7 µM (inactive); in [5], 5.31 µM (inactive); in experiment [6] it was 13.4 µM (inactive). Further, the GI50 is 4.57 µM (inactive) in experiment [7]; 5.33 µM (inactive) in experiment [8]; 12 µM (inactive) in [9]; 9.42 µM (inactive) in experiment [10]; 19.5 µM (inactive) in experiment [11]; 13.4 µM (inactive) in experiment [12]. The GI50 in experiment [13] is 9.98 µM (inactive); in experiment [14] it was 8.57 µM (inactive); in experiment [15], 4.15 µM (inactive); in experiment [16] it was 3.7 µM (inactive); in experiment [17], 6.64 µM (inactive); in experiment [18], 17.7 µM (inactive). For the same molecule, the GI50 in experiment [19] was 16.4 µM (inactive).

Consider `CCCCCCCCCCSC(=O)NC`, for which the GI50 was 22.5 µM (inactive) in [1]; 32.9 µM (inactive) in experiment [3]; 30.5 µM (inactive) in [4]; 63 µM (inactive) in [20]; 39.6 µM (inactive) in experiment [5]; 27.9 µM (inactive) in [6]. The GI50 in experiment [9] is 25.9 µM (inactive); in [10] it was 22.4 µM (inactive); in experiment [12] it was 28 µM (inactive); in [13], 79.8 µM (inactive); in [14], 40.4 µM (inactive); in experiment [15] it was 19 µM (inactive). Further, the GI50 was 50.1 µM (inactive) in [16], 33.3 µM (inactive) in [17], 34.9 µM (inactive) in experiment [18] and 37.9 µM (inactive) in experiment [19].

Take `NS(=O)(=O)c1ccc(/N=N/c2c(O)c(C(=O)O)cc3ccccc23)cc1`: the GI50 in experiment [1] was > 100 µM (inactive); in experiment [2], 99.1 µM (inactive); in [3], 82.6 µM (inactive); in experiment [4], > 100 µM (inactive); in [5] it was > 92.3 µM (inactive); in experiment [6], > 100 µM (inactive). Further, the GI50 was > 100 µM (inactive) in [7]; > 90.2 µM (inactive) in [8]; > 100 µM (inactive) in [9]; > 75.9 µM (inactive) in [10]; > 100 µM (inactive) in [11]; > 100 µM (inactive) in [12]. Further, the GI50 is > 100 µM (inactive) in experiment [13]; > 100 µM (inactive) in [14]; > 100 µM (inactive) in experiment [15]; > 100 µM (inactive) in experiment [16]; > 100 µM (inactive) in [17]; > 54.5 µM (inactive) in experiment [18]. The GI50 in experiment [19] was > 100 µM (inactive).

Turning to `COC(=O)C(C(=O)C(=O)Nc1ccc(OC)cc1[N+](=O)[O-])c1nc2cc(C)c(C)cc2nc1O` (stereo unspecified), the GI50 in [2], in experiment [3], in experiment [4], in [20], in [5] and in [6] was > 100 µM (inactive) each time. In addition, the GI50 in experiment [9], in experiment [10], in experiment [12], in experiment [13], in [14] and in [15] was > 100 µM (inactive) throughout. In addition, the GI50 in [16], in experiment [17], in [18] and in experiment [19] was > 100 µM (inactive) in each case.

Turning to `CSc1n[n+]2c(s1)SCCC2`, the GI50 in [2] was 95.5 µM (inactive); in [3], > 100 µM (inactive); in experiment [4], > 100 µM (inactive); in experiment [20], 42.7 µM (inactive); in experiment [5], 66.1 µM (inactive); in experiment [6] it was > 100 µM (inactive). In addition, the GI50 in [9] is 31.9 µM (inactive); in [10] it was > 100 µM (inactive); in experiment [12], > 100 µM (inactive); in experiment [13] it was 25.8 µM (inactive); in experiment [14], > 100 µM (inactive); in experiment [15], > 100 µM (inactive). Moreover, the GI50 in experiment [16] is > 100 µM (inactive); in experiment [17], > 100 µM (inactive); in experiment [18], 20.2 µM (inactive); in [19], > 100 µM (inactive).

In the case of `CN(CCc1ccccn1)/[N+]([O-])=N/O.CNCCc1ccccn1`, the GI50 in experiment [1], in experiment [2], in experiment [4], in experiment [20], in experiment [5] and in experiment [6] was > 100 µM (inactive) throughout. Also, the GI50 in experiment [9], in experiment [10], in experiment [12], in [13], in [14] and in experiment [15] was > 100 µM (inactive) throughout. The GI50 in experiment [16], in [17] and in [18] was > 100 µM (inactive) in each case.

For the molecule `Cc1cc2oc(=O)[nH]c(=S)c2c(C)c1C`, the GI50 in [1], in experiment [2], in [3], in experiment [4], in experiment [20] and in experiment [5] was > 100 µM (inactive) each time. Further, the GI50 in experiment [6], in experiment [10], in [12], in experiment [13], in experiment [14] and in experiment [15] was > 100 µM (inactive) each time. For the same molecule, the GI50 in experiment [16], in experiment [17], in [18] and in [19] was > 100 µM (inactive) each time.

As to `Cc1nc(Cl)c(Cl)c(Cl)n1`, the GI50 in experiment [1] was 0.51 µM (active); in [2] it was 0.451 µM (active); in [3] it was 0.0596 µM (active); in experiment [4] it was 0.526 µM (active); in experiment [5], 0.0471 µM (active); in experiment [6], 0.687 µM (active). The GI50 in experiment [7] was 0.354 µM (active); in experiment [8], 0.575 µM (active); in experiment [9], < 0.01 µM (active); in [10] it was 0.119 µM (active); in experiment [11], 2.81 µM (inactive); in experiment [12], 0.755 µM (active). For the same molecule, the GI50 in [13] is 0.173 µM (active); in experiment [14] it was 0.324 µM (active); in experiment [15], 0.0269 µM (active); in experiment [16] it was 1.86 µM (inactive); in experiment [17], 1.38 µM (inactive); in experiment [18], 0.434 µM (active). Moreover, the GI50 in [19] is 1.08 µM (active).

Regarding `COc1cccc(/C=N/n2c(Cc3ccc(Cl)cc3)n[nH]c2=O)c1`, the GI50 in experiment [1] is 32.7 µM (inactive); in experiment [2] it was 15.4 µM (inactive); in experiment [3], 25.6 µM (inactive); in experiment [4] it was 27.9 µM (inactive); in experiment [5], > 100 µM (inactive); in experiment [6], > 100 µM (inactive). For the same molecule, the GI50 in experiment [7] was 30.6 µM (inactive); in experiment [8] it was 29.9 µM (inactive); in experiment [9], 23.4 µM (inactive); in experiment [10], > 100 µM (inactive); in experiment [11], 25.8 µM (inactive); in [12], 16.9 µM (inactive). Moreover, the GI50 in experiment [13] is 33.5 µM (inactive); in experiment [14], 36.6 µM (inactive); in [15], > 100 µM (inactive); in experiment [16] it was 17.1 µM (inactive); in experiment [17], > 91.4 µM (inactive); in [18] it was > 100 µM (inactive). For the same molecule, the GI50 in experiment [19] was 74 µM (inactive).

Regarding `COc1cc(CC2c3cc(OC)c(OC)cc3CCN2C)ccc1O` (stereo unspecified), the GI50 in experiment [1], in experiment [2], in experiment [4], in [20], in experiment [5] and in [6] was > 100 µM (inactive) throughout. Moreover, the GI50 in experiment [9], in experiment [10], in experiment [12], in [14], in experiment [16] and in [17] was > 100 µM (inactive) each time. In addition, in experiment [19], the GI50 was > 100 µM (inactive).

Consider `CC1=C(C(=O)NNC(=O)C[N+](C)(C)C)CC(C(=O)NNC(=O)C[N+](C)(C)C)=C(C)N1`, for which the GI50 in [1], in [2], in [3], in experiment [4], in [5] and in experiment [6] was > 100 µM (inactive) each time. For the same molecule, the GI50 in experiment [7], in experiment [8], in [9], in experiment [10], in experiment [11] and in experiment [12] was > 100 µM (inactive) throughout. Further, the GI50 was > 100 µM (inactive) in [13]; > 100 µM (inactive) in [14]; 24.9 µM (inactive) in experiment [15]; > 100 µM (inactive) in experiment [16]; > 100 µM (inactive) in experiment [17]; > 100 µM (inactive) in experiment [18]. For the same molecule, in [19], the GI50 is > 100 µM (inactive).

For `O=[N+]([O-])O` [NITRIC ACID], the GI50 in experiment [1], in [2], in experiment [3], in experiment [4], in experiment [5] and in [6] was > 100 µM (inactive) in each case. Besides, the GI50 in experiment [7], in experiment [8], in experiment [9], in experiment [10], in [11] and in experiment [12] was > 100 µM (inactive) each time. Moreover, the GI50 in experiment [13], in experiment [14], in experiment [15], in [16], in experiment [17] and in experiment [18] was > 100 µM (inactive) in each case. The GI50 in [19] was > 100 µM (inactive).

Values taken from ChEMBL document CHEMBL1201862, “PubChem BioAssay data set” (2004).
